Literature values, collected in patent publication US8431374B2, “Methods for the economical production of biofuel from biomass” (Gevo, Inc., priority 2007, dated 2013).
Values belong to the compound of their own block, whether it stands above or below them.

What was measured:
Klyveromyces marxianus = conditions: in binary combination (Ballesteros 2004)
[1] = logarithm of the octanol:water partition coefficient

SMILES: COc1cc(C=O)ccc1O [Vanillin, vanillin]
reduction in both cell growth and fermentation (Klyveromyces marxianus): 90%

SMILES: CCC(C)O (centres unmarked) [2-butanol]
log P [1]: 0.6

Second part, the compound after the results:

solubility limit (octanol, two-phase system (Chen, Q. 1995)): < 1100 µg/mL
SMILES: CCCCCCCCO [1-octanol]

log P [1]: 0.79
SMILES: CC(C)CO [isobutanol]

Solubility in water (20° C., given in words): miscible
SMILES: CC(C)O [2-propanol]
